Where two headings read alike, the source gives them in different places.
Experiments:
[1] = test system: MV4;11 cells; assay: Cell viability assay (CellTiter-Glo) in MV4;11 cells, alone or with gilteritinib; type: cell-based; settings: Homo sapiens, MV4;11 cells, CellTiter-Glo, read-out: MV4
[2] = test system: MOLM-13 cells; assay: Cell viability assay (CellTiter-Glo) in MOLM-13 cells, alone or with gilteritinib; type: cell-based; settings: Homo sapiens, MOLM-13 cells, CellTiter-Glo
[3] = MV4-11, 72 h, compound alone (without gilteritinib), three days, 11 IC50
[4] = MV4-11, 72 h, compound with gilteritinib 10 nM, three days, 11 IC50 gilteritinib
[5] = MOLM-13, 72 h, compound alone (without gilteritinib), three days, read-out: MOLM-13 IC50
[6] = MOLM-13, 72 h, compound with gilteritinib 20 nM, three days, read-out: MOLM-13 IC50 gilteritinib
[7] = MV4-11, 72 h, with gilteritinib 10 nM, three days, 11 IC50 gilteritinib
[8] = MOLM-13, 72 h, with gilteritinib 20 nM, three days, read-out: MOLM-13 IC50 gilteritinib
[9] = 72 h, compound alone (without gilteritinib), three days, 11 IC50
[10] = 72 h, with gilteritinib 10 nM, three days, 11 IC50 gilteritinib
[11] = 72 h, compound alone (without gilteritinib), three days, read-out: MOLM-13 IC50
[12] = 72 h, with gilteritinib 20 nM, three days, read-out: MOLM-13 IC50 gilteritinib

IC50 [1, 3] [nM] | IC50 [2, 5] [nM] | IC50 [1, 7] [nM] | IC50 [2, 8] [nM] | SMILES | also measured
10 to 100 | 10 to 100 | – | – | O=C1CCC(N2C(=O)c3ccc(NC[C@H]4C[C@H](n5cc(-c6ccccc6Cl)c(C6CC6)n5)C4)cc3C2=O)C(=O)N1 (stereo partly drawn) [GS-458, 5-(((trans-3-(4-(2-chlorophenyl)-3-cyclopropyl-1H-pyrazol-1-yl)cyclobutyl)methyl)amino)-2-(2,6-dioxopiperidin-3-yl)isoindoline-1,3-dione] | IC50 [1, 4]: < 10 nM; IC50 [2, 6]: < 10 nM
100 to 1000 | 100 to 1000 | 10 to 100 | < 10 | Cc1nn(CCCCCCNc2ccc3c(c2)C(=O)N(C2CCC(=O)NC2=O)C3=O)c(C)c1-c1ncccn1 (stereo not drawn) [GS-150, 5-((6-(3,5-Dimethyl-4-(pyrimidin-2-yl)-1H-pyrazol-1-yl)hexyl)amino)-2-(2,6-dioxopiperidin-3-yl)isoindoline-1,3-dione] | –
– | – | – | – | O=C1CCC(N2Cc3ccc(CCCCCC(=O)N4CCC(c5ccccc5)CC4)cc3C2=O)C(=O)N1 (stereo not drawn) [GS-095, 3-(1-Oxo-6-(6-oxo-6-(4-phenylpiperidin-1-yl)hexyl)isoindolin-2-yl)piperidine-2,6-dione] | IC50 [1, 9]: 100 to 1000 nM; IC50 [1, 10]: 10 to 100 nM; IC50 [2, 11]: 100 to 1000 nM; IC50 [2, 12]: 10 to 100 nM
> 1000 | > 1000 | > 1000 | > 1000 | CNc1ccnc(-c2cn([C@H]3C[C@H](CNc4ccc5c(c4)C(=O)N(C4CCC(=O)NC4=O)C5=O)C3)nc2C2CC2)c1 (stereo partly drawn) [GS-306, 5-(((trans-3-(3-Cyclopropyl-4-(4-(methylamino)pyridin-2-yl)-1H-pyrazol-1-yl)cyclobutyl)methyl)amino)-2-(2,6-dioxopiperidin-3-yl)isoindoline-1,3-dione] | –
> 1000 | > 1000 | > 1000 | > 1000 | O=C1CCC(N2Cc3ccc(CCCC(=O)N4CCC(n5cc(-c6ccc7ccccc7n6)cn5)CC4)cc3C2=O)C(=O)N1 (stereo not drawn) [GS-159, 3-(1-Oxo-6-(4-oxo-4-(4-(4-(quinolin-2-yl)-1H-pyrazol-1-yl)piperidin-1-yl)butyl)isoindolin-2-yl)piperidine-2,6-dione] | –
100 to 1000 | 100 to 1000 | 10 to 100 | 10 to 100 | C[C@@H]1CN(c2ccc3ncc(-c4cnn([C@H]5C[C@H](CCCNc6ccc7c(c6)C(=O)N(C6CCC(=O)NC6=O)C7=O)C5)c4)nc3c2)C[C@H](C)N1C (stereo partly drawn) [GS-408, 2-(2,6-dioxopiperidin-3-yl)-5-((3-(trans-3-(4-(7-((3S,5R)-3,4,5-trimethylpiperazin-1-yl)quinoxalin-2-yl)-1H-pyrazol-1-yl)cyclobutyl)propyl)amino)isoindoline-1,3-dione] | –
10 to 100 | 10 to 100 | < 10 | < 10 | O=C1CCC(N2C(=O)c3ccc(NCCC[C@H]4C[C@H](n5cc(-c6cnc7ccccc7n6)c(C(F)F)n5)C4)cc3C2=O)C(=O)N1 (stereo partly drawn) [GS-243, 5-((3-(trans-3-(3-(Difluoromethyl)-4-(quinoxalin-2-yl)-1H-pyrazol-1-yl)cyclobutyl)propyl)amino)-2-(2,6-dioxopiperidin-3-yl)isoindoline-1,3-dione] | –
> 1000 | > 1000 | < 10 | 10 to 100 | CN1CCN(c2cccc3ncc(-c4cnn(C5CCN(C(=O)CCCCCNc6ccc7c(c6)C(=O)N(C6CCC(=O)NC6=O)C7=O)CC5)c4)nc23)CC1 (stereo not drawn) [GS-036, 2-(2,6-Dioxopiperidin-3-yl)-5-((6-(4-(4-(8-(4-methylpiperazin-1-yl)quinoxalin-2-yl)-1H-pyrazol-1-yl)piperidin-1-yl)-6-oxohexyl)amino)isoindoline-1,3-dione] | –
> 1000 | > 1000 | – | – | O=C1CCC(N2C(=O)c3ccc(NC[C@H]4C[C@H](n5cc(N6CCOCC6)c(C6CC6)n5)C4)cc3C2=O)C(=O)N1 (stereo partly drawn) [GS-438, 5-(((trans-3-(3-cyclopropyl-4-morpholino-1H-pyrazol-1-yl)cyclobutyl)methyl)amino)-2-(2,6-dioxopiperidin-3-yl)isoindoline-1,3-dione] | IC50 [1, 4]: > 1000 nM; IC50 [2, 6]: 100 to 1000 nM
< 10 | < 10 | – | – | O=C1CCC(N2Cc3cc(NC(=O)c4cccc(N5CCC(n6cc(-c7cnc8ccccc8n7)cn6)CC5)c4)ccc3C2=O)C(=O)N1 (stereo not drawn) [GS-513, N-(2-(2,6-Dioxopiperidin-3-yl)-1-oxoisoindolin-5-yl)-3-(4-(4-(quinoxalin-2-yl)-1H-pyrazol-1-yl)piperidin-1-yl)benzamide] | IC50 [1, 4]: < 10 nM; IC50 [2, 6]: < 10 nM
100 to 1000 | > 1000 | 100 to 1000 | 10 to 100 | O=C1CCC(N2C(=O)c3ccc(NCCCCn4cc(-c5cnc6ccccc6n5)cn4)cc3C2=O)C(=O)N1 (stereo not drawn) [GS-360, 2-(2,6-Dioxopiperidin-3-yl)-5-((4-(4-(quinoxalin-2-yl)-1H-pyrazol-1-yl)butyl)amino)isoindoline-1,3-dione] | –
100 to 1000 | 100 to 1000 | > 1000 | 100 to 1000 | O=C1CCC(N2C(=O)c3ccc(NC[C@H]4C[C@@H](n5cc(-c6cnc7ccc(N8CCOCC8)cc7n6)cn5)C4)cc3C2=O)C(=O)N1 (stereo partly drawn) [GS-189, 2-(2,6-Dioxopiperidin-3-yl)-5-(((cis-3-(4-(7-morpholinoquinoxalin-2-yl)-1H-pyrazol-1-yl)cyclobutyl)methyl)amino)isoindoline-1,3-dione] | –
– | – | – | – | O=C1CCC(N2Cc3ccc(CCCCCCC(=O)N4CCN(c5ccccn5)CC4)cc3C2=O)C(=O)N1 (stereo not drawn) [GS-096, 3-(1-Oxo-6-(7-oxo-7-(4-(pyridin-2-yl)piperazin-1-yl)heptyl)isoindolin-2-yl)piperidine-2,6-dione] | IC50 [1, 9]: 10 to 100 nM; IC50 [1, 10]: < 10 nM; IC50 [2, 11]: 100 to 1000 nM; IC50 [2, 12]: < 10 nM
< 10 | 10 to 100 | < 10 | < 10 | O=C1CCC(N2C(=O)c3ccc(NC[C@H]4C[C@H](n5cc(-c6nccc7[nH]ccc67)c(C6CC6)n5)C4)cc3C2=O)C(=O)N1 (stereo partly drawn) [GS-278, 5-(((trans-3-(3-Cyclopropyl-4-(1H-pyrrolo[3,2-c]pyridin-4-yl)-1H-pyrazol-1-yl)cyclobutyl)methyl)amino)-2-(2,6-dioxopiperidin-3-yl)isoindoline-1,3-dione] | –
– | – | – | – | O=C1CCC(N2Cc3ccc(CCCCCCC(=O)N4CCC(c5ccccc5)CC4)cc3C2=O)C(=O)N1 (stereo not drawn) [GS-099, 3-(1-Oxo-6-(7-oxo-7-(4-phenylpiperidin-1-yl)heptyl)isoindolin-2-yl)piperidine-2,6-dione] | IC50 [1, 9]: 100 to 1000 nM; IC50 [1, 10]: 10 to 100 nM; IC50 [2, 11]: 100 to 1000 nM; IC50 [2, 12]: 10 to 100 nM
> 1000 | > 1000 | 100 to 1000 | 100 to 1000 | O=C1CCC(N2Cc3c(Nc4ccnc(Nc5cccc(C(=O)N6CCN(c7ccccn7)CC6)c5)n4)cccc3C2=O)C(=O)N1 (stereo not drawn) [GS-080, 3-(1-Oxo-4-((2-((3-(4-(pyridin-2-yl)piperazine-1-carbonyl)phenyl)amino)pyrimidin-4-yl)amino)isoindolin-2-yl)piperidine-2,6-dione] | –
– | – | – | – | CCc1nc(C(N)=O)c(Nc2ccc(N3CCC(N4CCN(C)CC4)CC3)c(OC)c2)nc1NC1CCOCC1 [gilteritinib, reference compound] | IC50 ([1]; MV4-11, 72 h, without gilteritinib, 3 days, 11 IC50): 2.3 nM; IC50 ([2]; MOLM-13, 72 h, without gilteritinib, 3 days, read-out: MOLM-13 IC50): 7 nM
100 to 1000 | > 1000 | – | – | O=C1CCC(N2C(=O)c3ccc(NC4CC5(C4)CC(n4cc(-c6cnc7ccccc7n6)cn4)C5)cc3C2=O)C(=O)N1 (stereo not drawn) [GS-527, 2-(2,6-Dioxopiperidin-3-yl)-5-((6-(4-(quinoxalin-2-yl)-1H-pyrazol-1-yl)spiro[3.3]heptan-2-yl)amino)isoindoline-1,3-dione] | IC50 [1, 4]: 100 to 1000 nM; IC50 [2, 6]: 100 to 1000 nM
> 1000 | > 1000 | > 1000 | > 1000 | CN1CCC(Nc2ccc(-c3cn([C@H]4C[C@H](CNc5ccc6c(c5)C(=O)N(C5CCC(=O)NC5=O)C6=O)C4)nc3C3CC3)nc2)CC1 (stereo partly drawn) [GS-303, 5-(((trans-3-(3-Cyclopropyl-4-(5-((1-methylpiperidin-4-yl)amino)pyridin-2-yl)-1H-pyrazol-1-yl)cyclobutyl)methyl)amino)-2-(2,6-dioxopiperidin-3-yl)isoindoline-1,3-dione] | –
> 1000 | > 1000 | 100 to 1000 | 100 to 1000 | O=C1CCC(N2C(=O)c3ccc(NCCCCCC(=O)N4CCC(O)(c5ccccc5)CC4)cc3C2=O)C(=O)N1 (stereo not drawn) [GS-333, 2-(2,6-Dioxopiperidin-3-yl)-5-((6-(4-hydroxy-4-phenylpiperidin-1-yl)-6-oxohexyl)amino)isoindoline-1,3-dione] | –

— patent US20240050428A1 (Cullgen (Shanghai), Inc., priority 2020, published 2024)
